Laboratory results as given in patent US20250281476A1, “EFINACONAZOLE ORAL COMPOSITION” (priority 2020, published 2025).
Converted amounts (≈) assume the structure as drawn. Like-named read-outs stand apart in the source and are kept apart here.

What was measured:
[1] = cited from earlier work
[2] = Stability test of 10% solutions at room temperature and 65° C., purity by HPLC; type: physicochemical; conditions: solution (10%)
Method: The stability of the co-crystal of efinaconazole to temperature and a solution was evaluated and compared with that of efinaconazole by the following experimental method.
A co-crystalline form of efinaconazole was prepared.

[3] = in vivo; conditions: for AUC(0-t): AUCt; for concentration at 0.5 h: read-out: Blood voriconazole concentration, Time 0.5 hr; for concentration at 1 h: read-out: Blood voriconazole concentration, Time 1 hr; for concentration at 2 h: read-out: Blood voriconazole concentration, Time 2 hr; for concentration at 4 h: read-out: Blood voriconazole concentration, Time 4 hr; for concentration at 6 h: read-out: Blood voriconazole concentration, Time 6 hr; for concentration at 8 h: read-out: Blood voriconazole concentration, Time 8 hr; for concentration at 10 h: read-out: Blood voriconazole concentration, Time 10 hr
Method: 24 male beagle dogs were divided into 4 groups, 6 animals per group. Voriconazole as a control drug was once administered to the animals via an oral route under fasting conditions. Efinaconazole as a test drug was once administered to the animals via intravenous and oral routes under fasting conditions. Thereafter, the pharmacokinetic (PK) profiles of the drugs were determined to calculate PK parameters of the drugs and evaluate the pharmacokinetics of the drugs. Specific test conditions and methods are as follows.
The test substances were weighed with an electronic balance. Each of the weighed test substances was placed in a glass container and 0.5% methylcellulose in a 1% Tween 80 solution (distilled water) as an excipient was added thereto. The mixture was vortexed and sonicated to prepare a homogeneous test material.
For intravenous administration, the doses of efinaconazole (intravenous administration group G1) were calculated based on the body weights of the animals. To the test substance was added PEG400 as an excipient whose volume corresponded to 30% of the total volume of a final test material. The mixture was vortexed and sonicated for complete dissolution. To the solution was added ethanol in an amount corresponding to 20% of the total volume of the test material, followed by homogenization by sonication. Then, 0.9% saline was added in an amount corresponding to 50% of the total volume of the test material, followed by vortexing and sonication to in situ prepare the test material in a homogeneous state.
• Routes of administration: Intravenous (IV) and oral (PO) • Doses: G1 (Voriconazole)—6 mg/5 ml/kg (PO); G2 (Efinaconazole)—6 mg/5 ml/kg (PO); G3 (Efinaconazole-Polymer)—6 mg/5 ml/kg (PO); G1 (Efinaconazole)—0.5 mg/I ml/kg (IV) • Frequency of administration: Single dose (once daily)—(QD)
4 ml of blood was collected from each point and centrifuged. 500 μl of the plasma supernatant was dispensed in a 1.5 ml EP tube and the remaining plasma was dispensed into a set of 1.5 ml EP tubes. The samples were stored in a deep freezer at −80° C. After completion of the testing, the blood collection records, sample information certificates, dispensing records, clinical symptom observation records, medication/blood collection results, and test samples (plasma samples) were sent to a specialized analysis agency.
After storage in a freezer, the samples were analyzed by LC/MS/MS and their pharmacokinetic parameters were calculated in a noncompartmental manner using “Phoenix WinNonlin (Version 8.2 or higher, Certara L. P)” software.
AUCt, a bioavailability parameter, is the area under the plasma concentration-time curve from the time of administration medication to the last time point of blood collection with a measurable concentration and was calculated by the trapezoidal formula. Cmax is the highest plasma drug concentration read from the plasma drug concentration-time curve of each sample and Tmax is the time taken to reach the highest plasma drug concentration read from the plasma drug concentration-time curve of each sample. AUC∞ is the area under the plasma concentration-time curve from the time of administration to time infinity.

[4] = male, beagle, dog, in vivo, 0.5 mg/kg, Blood efinaconazole concentration, Time 12 hr
[5] = male, beagle, dog, in vivo, 6 mg/kg, Geometric Means
[6] = male, beagle, dog, in vivo, po, 6 mg/kg, Cmax
[7] = male, beagle, dog, in vivo, po, 6 mg/kg, Geometric Means
[8] = male, beagle, dog, in vivo, po, 6 mg/kg, Geometric Means, Cmax
[9] = male, dog, in vivo, 6 mg/kg, beagle dog, fasting, single 6 mg/kg P.O, group Mean (6 animals)
[10] = male, dog, in vivo, 6 mg/kg, beagle dog, fasting, single 6 mg/kg P.O, individual animals

SMILES: C=C1CCN([C@H](C)[C@](O)(Cn2cncn2)c2ccc(F)cc2F)CC1 [Efinaconazole]
- water solubility [1]: ~0.61 mg/mL (≈ 1750 µM)
- HPLC (%) After 1 week ([2]; 65° C.): 99.55%
- Related substances (%) After 1 week ([2]; 65° C.): 0.45%
- HPLC (%) After 2 weeks ([2]; 65° C.): 99.46%
- Related substances (%) After 2 weeks ([2]; 65° C.): 0.54%
- HPLC (%) After 4 weeks ([2]; 65° C.): 98.47%
- Related substances (%) After 4 weeks ([2]; 65° C.): 1.53%
- HPLC (%) After 1 week ([2]; room temp.): 99.73%
- Related substances (%) After 1 week ([2]; room temp.): 0.27%
- HPLC (%) After 2 weeks ([2]; room temp.): 99.61%
- Related substances (%) After 2 weeks ([2]; room temp.): 0.39%
- HPLC (%) After 4 weeks ([2]; room temp.): 99.60%
- Related substances (%) After 4 weeks ([2]; room temp.): 0.40%
- Blood efinaconazole concentration, Time 8 hr ([3]; dog, in vivo, 0.5 mg/kg): BLQ
- Blood efinaconazole concentration, Time 10 hr ([3]; dog, in vivo, 0.5 mg/kg): BLQ
- Blood efinaconazole concentration, Time 12 hr ([3]; dog, in vivo, 0.5 mg/kg): BLQ
- Blood efinaconazole concentration, Time 24 hr ([3]; dog, in vivo, 0.5 mg/kg): BLQ
- bioavailability compared with other antifungals when administered orally ([3]; dog, in vivo, po): higher than those of other antifungals, including voriconazole and itraconazole
- concentration at 0.053 h ([3]; male, beagle, dog, in vivo, 0.5 mg/kg, Blood efinaconazole concentration, Time 0.053 hr): 262 ng/mL
- concentration at 0.25 h ([3]; male, beagle, dog, in vivo, 0.5 mg/kg, Blood efinaconazole concentration, Time 0.25 hr): 168 ng/mL
- concentration at 12 h [3, 4]: 1.36 ng/mL
- concentration at 12 hr [3, 4]: 3.52 ng/mL
- concentration at 24 h ([3]; male, beagle, dog, in vivo, 0.5 mg/kg, Blood efinaconazole concentration, Time 24 hr): 0 ng/mL
- AUC(0-t) ([3]; male, beagle, dog, in vivo, 0.5 mg/kg, Geometric Means): 245 ng·h/mL
- Cmax ([3]; male, beagle, dog, in vivo, 0.5 mg/kg, Geometric Means, Cmax): 318 ng/mL
- bioavailability ([3]; male, beagle, dog, in vivo, 6 mg/kg): 51.4 ± 24.6%
- concentration at 2 hr ([3]; male, beagle, dog, in vivo, 6 mg/kg, Blood efinaconazole concentration, Time 2 hr): 177 ng/mL
- concentration at 4 hr ([3]; male, beagle, dog, in vivo, 6 mg/kg, Blood efinaconazole concentration, Time 4 hr): 64.9 ng/mL
- concentration at 6 hr ([3]; male, beagle, dog, in vivo, 6 mg/kg, Blood efinaconazole concentration, Time 6 hr): 27.5 ng/mL
- AUC(0-t) [3, 5]: 1440 ng·h/mL
- Cmax ([3]; male, beagle, dog, in vivo, iv, 0.5 mg/kg, Cmax): 322 ± 58.6 ng/mL
- Tmax ([3]; male, beagle, dog, in vivo, iv, 0.5 mg/kg, Tmax): 4.98 min
- Cmax [3, 6]: 925 ± 236 ng/mL
- AUC(0-t) [3, 7]: 1440 ng·h/mL
- Cmax [3, 8]: 904 ng/mL

SMILES: C[C@@H](c1ncncc1F)[C@](O)(Cn1cncn1)c1ccc(F)cc1F [Voriconazole]
- AUCt/AUC∞ ([3]; beagle dog, fasting, single 6 mg/kg P.O, group Mean (6 animals)): 51.125
- AUC(0-t) [3, 5]: 53500 ng·h/mL
- AUC(0-t) ([3]; male, beagle, dog, in vivo, po, 6 mg/kg): 53900 ng·h/mL
- AUC(0-inf) ([3]; male, beagle, dog, in vivo, po, 6 mg/kg, AUC∞): 109 µg·h/mL
- Cmax [3, 6]: 3670 ng/mL
- AUC(0-t) [3, 7]: 53500 ng·h/mL
- Cmax [3, 8]: 3670 ng/mL
- concentration at 0.053 h ([3]; male, dog, in vivo, 6 mg/kg, beagle dog, fasting, single 6 mg/kg P.O, group Mean (6 animals), read-out: Blood voriconazole concentration, Time 0.053 hr): 443 ng/mL
- concentration at 0.25 h ([3]; male, dog, in vivo, 6 mg/kg, beagle dog, fasting, single 6 mg/kg P.O, group Mean (6 animals), read-out: Blood voriconazole concentration, Time 0.25 hr): 2720 ng/mL
- concentration at 0.5 h [3, 9]: 3410 ng/mL
- concentration at 1 h [3, 9]: 3440 ng/mL
- concentration at 2 h [3, 9]: 3090 ng/mL
- concentration at 4 h [3, 9]: 2950 ng/mL
- concentration at 6 h [3, 9]: 2610 ng/mL
- concentration at 8 h [3, 9]: 2460 ng/mL
- concentration at 10 h [3, 9]: 2270 ng/mL
- concentration at 12 h ([3]; male, dog, in vivo, 6 mg/kg, beagle dog, fasting, single 6 mg/kg P.O, group Mean (6 animals), read-out: Blood voriconazole concentration, Time 12 hr): 2180 ng/mL
- concentration at 24 h ([3]; male, dog, in vivo, 6 mg/kg, beagle dog, fasting, single 6 mg/kg P.O, group Mean (6 animals), read-out: Blood voriconazole concentration, Time 24 hr): 1500 ng/mL
- concentration at 0.5 h [3, 10]: 3280 ng/mL
- concentration at 1 h [3, 10]: 3280 ng/mL
- concentration at 2 h [3, 10]: 3000 ng/mL
- concentration at 4 h [3, 10]: 2940 ng/mL
- concentration at 6 h [3, 10]: 2660 ng/mL
- concentration at 8 h [3, 10]: 2430 ng/mL
- concentration at 10 h [3, 10]: 2250 ng/mL
- concentration at 12 h ([3]; male, dog, in vivo, 6 mg/kg, beagle dog, fasting, single 6 mg/kg P.O, individual animals, read-out: Blood voriconazole concentration, Time 12 hr): 2160 ng/mL
- concentration at 24 h ([3]; male, dog, in vivo, 6 mg/kg, beagle dog, fasting, single 6 mg/kg P.O, individual animals, read-out: Blood voriconazole concentration, Time 24 hr): 1470 ng/mL
- Cmax ([3]; male, dog, in vivo, po, 6 mg/kg, beagle dog, fasting, single 6 mg/kg P.O, individual animals, read-out: Cmax): 3520 ng/mL
